Test results published in the NIST ThermoML archive (doi:10.1021/acs.jced.7b00026).
Numbers after ± are expanded uncertainties.

Key:
[1] = Boiling temperature at pressure P; conditions: Liquid, Ebulliometric method (Recirculating still)
[2] = Liquid; for mass density: 293.15 K, 101.33 kPa, Vibrating tube method
[3] = refractive index (Na D-line) (dimensionless); conditions: 293.15 K; 101.33 kPa; Liquid; Standard Abbe refractometry

CCCO [propan-1-ol]
[1]
Conditions	Boiling temperature at pressure P [°C]
14.9 kPa	53.83 ± 0.23
25.89 kPa	64.94 ± 0.23
29.9 kPa	67.97 ± 0.2
39.89 kPa	74.30 ± 0.2
51.21 kPa	79.99 ± 0.19
59.89 kPa	83.71 ± 0.19
69.89 kPa	87.44 ± 0.19
79.88 kPa	90.76 ± 0.19
93.89 kPa	94.87 ± 0.19
99.88 kPa	96.46 ± 0.18

Conditions	mass density [kg/m3]	refractive index
[2]	803.66 ± 1	–
[3]	–	1.38512 ± 0.00086

[2], Ebullio
Conditions	vapor or sublimation pressure [kPa]
338.15 K	25.92 ± 2
353.15 K	51 ± 4
368.15 K	93.92 ± 7.3

CC(C)O [propan-2-ol]
Conditions	Boiling temperature at pressure P [°C]	vapor or sublimation pressure [kPa]
[1], 14.9 kPa	41.28 ± 0.23	–
[1], 23.43 kPa	49.88 ± 0.22	–
[1], 29.9 kPa	54.82 ± 0.2	–
[1], 39.89 kPa	60.83 ± 0.2	–
[1], 48.34 kPa	64.99 ± 0.19	–
[1], 59.89 kPa	69.8 ± 0.19	–
[1], 69.89 kPa	73.30 ± 0.19	–
[1], 79.88 kPa	76.49 ± 0.19	–
[1], 92.4 kPa	79.99 ± 0.18	–
[1], 98.88 kPa	81.67 ± 0.18	–
[2], 323.15 K	–	23.48 ± 1.8
[2], 338.15 K	–	48.45 ± 3.8
[2], 353.15 K	–	92.48 ± 7.2

Conditions	mass density [kg/m3]	refractive index
[2]	784.99 ± 1	–
[3]	–	1.37718 ± 0.00086

CC(=O)CC(C)C [4-methylpentan-2-one]
[1]
Conditions	Boiling temperature at pressure P [°C]
9.22 kPa	49.67 ± 0.38
9.9 kPa	51.26 ± 0.38
17.52 kPa	64.70 ± 0.27
18.41 kPa	65.96 ± 0.27
31.36 kPa	79.73 ± 0.22
32.13 kPa	80.39 ± 0.22
39.89 kPa	86.5 ± 0.2
53.99 kPa	95.31 ± 0.2
69.89 kPa	103.21 ± 0.19

Conditions	mass density [kg/m3]	refractive index
[2]	800.3 ± 1	–
[3]	–	1.39586 ± 0.00085

[2], Ebullio
Conditions	vapor or sublimation pressure [kPa]
323.15 K	9.22 ± 0.72
338.15 K	17.57 ± 1.4
353.15 K	31.41 ± 2.4
368.15 K	54.04 ± 4.2
